In US12595261B2, “P2X3 and/or P2X2/3 receptor antagonist, pharmaceutical composition containing same, and use thereof” (BEIJING TIDE PHARMACEUTICAL CO., LTD., priority 2019, dated 2026):

Columns and labels:
Human P2X3 receptor = biological target: T1, Human P2X3 receptor (Homo sapiens, UniProt P56373); assay: Inhibitory activity on human P2X3 receptor (FLIPR calcium 6 assay, HEK293-P2X3 cells, agonist α,β-MeATP); assay type: cell-based; conditions: HEK293-P2X3 stably expressing cell line, FLIPR Tetra
T1 construct: expressed in transfected cells; host or cells: HEK293 (stably expressing)
T1 sequence (P56373 1-397): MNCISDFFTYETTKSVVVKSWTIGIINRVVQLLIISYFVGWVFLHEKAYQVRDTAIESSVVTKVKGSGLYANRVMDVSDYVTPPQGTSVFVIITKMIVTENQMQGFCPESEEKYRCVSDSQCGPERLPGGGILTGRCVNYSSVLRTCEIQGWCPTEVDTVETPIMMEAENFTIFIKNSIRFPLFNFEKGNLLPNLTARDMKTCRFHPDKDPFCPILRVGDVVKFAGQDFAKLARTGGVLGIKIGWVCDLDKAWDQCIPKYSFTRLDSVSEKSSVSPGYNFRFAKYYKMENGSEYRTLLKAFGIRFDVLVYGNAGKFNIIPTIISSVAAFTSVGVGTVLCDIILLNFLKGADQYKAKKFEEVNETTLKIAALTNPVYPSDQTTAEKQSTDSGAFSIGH
Procedure: (§1) Biological Assay: Determination of the Inhibitory Activity of the Compounds on Human P2X3 and P2X2/3 Receptors
(§2) Cells were seeded into a poly-D-lysine-coated 384-well cell culture plate (Corning) at a density of 11,000 cells/well/25 μL of cell inoculation medium, and were cultured in a cell incubator overnight. On the day of the test, the calcium 6 dye was diluted to a 2× concentration with an assay buffer, 25 μL of the 2× calcium 6 dye was added to the 384-well cell culture plate, which was incubated at 37° C. for 2 hours, and then placed at room temperature for further use. The test compound and the agonist, α,β-MeATP were diluted to a 7× concentration with the assay buffer, 10 μL of the 7× test compound was added to the 384-well cell culture plate, which was incubated at room temperature for 15 minutes, and 10 μL of the 7× α,β-MeATP was transferred into the 384-well cell culture plate. […]

Human P2X2/3 receptor = biological target: T2, Human P2X2/3 receptor (Homo sapiens, UniProt P56373+Q9UBL9); assay: Inhibitory activity on human P2X2/3 receptor (FLIPR calcium 6 assay, HEK293-P2X2/3 cells, agonist α,β-MeATP); assay type: cell-based; conditions: HEK293-P2X2/3 stably expressing cell line, FLIPR Tetra
T2 construct: expressed in transfected cells; host or cells: HEK293 (stably expressing)
T2 sequence (P56373 1-397): T1 sequence (P56373 1-397)
T2 sequence (Q9UBL9 1-471): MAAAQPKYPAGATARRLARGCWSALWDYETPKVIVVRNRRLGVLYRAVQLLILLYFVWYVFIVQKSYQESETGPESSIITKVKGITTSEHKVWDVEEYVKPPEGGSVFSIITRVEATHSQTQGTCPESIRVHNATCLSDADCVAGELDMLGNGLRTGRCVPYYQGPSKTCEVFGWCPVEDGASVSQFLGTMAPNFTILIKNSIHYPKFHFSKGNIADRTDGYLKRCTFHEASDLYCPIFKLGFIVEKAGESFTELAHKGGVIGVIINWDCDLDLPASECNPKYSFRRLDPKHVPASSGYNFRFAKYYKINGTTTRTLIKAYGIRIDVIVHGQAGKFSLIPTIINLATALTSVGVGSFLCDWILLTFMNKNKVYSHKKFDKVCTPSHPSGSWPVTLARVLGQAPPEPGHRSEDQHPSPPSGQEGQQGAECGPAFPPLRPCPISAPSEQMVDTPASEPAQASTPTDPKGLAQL
Procedure: as §1, §2

| SMILES | IC50 (Human P2X3 receptor) [nM] | IC50 (Human P2X2/3 receptor) [nM] |
| --- | --- | --- |
| CC(C)c1cnc2c(c1Oc1cnc(N)nc1N)CCN2 [Compound C1, 5-((5-isopropyl-2,3-dihydro-1H-pyrrolo[2,3-b]pyridin-4-yl)oxy)pyrimidin-2,4-diamine] | 60.5 | 100 |
| CC(C)c1cnc2[nH]ccc2c1Oc1cnc(N)nc1N [Compound C4, 5-((5-isopropyl-1H-pyrrolo[2,3-b]pyridin-4-yl)oxy)pyrimidin-2,4-diamine] | 86 | 80 |
